These results are taken from paper PMC9518283 (Journal of Enzyme Inhibition and Medicinal Chemistry, 2022).

In data set [1] the test system is human hepatic stellate cells. Also noted: method as in PMID 25792506. Particulars: cited from earlier work.
For another data set, the target named is T1, hMAO-B (Homo sapiens, UniProt P27338).
T1 construct: purchased Sigma-Aldrich (St. Louis, MO, USA)
T1 sequence (P27338 1-520): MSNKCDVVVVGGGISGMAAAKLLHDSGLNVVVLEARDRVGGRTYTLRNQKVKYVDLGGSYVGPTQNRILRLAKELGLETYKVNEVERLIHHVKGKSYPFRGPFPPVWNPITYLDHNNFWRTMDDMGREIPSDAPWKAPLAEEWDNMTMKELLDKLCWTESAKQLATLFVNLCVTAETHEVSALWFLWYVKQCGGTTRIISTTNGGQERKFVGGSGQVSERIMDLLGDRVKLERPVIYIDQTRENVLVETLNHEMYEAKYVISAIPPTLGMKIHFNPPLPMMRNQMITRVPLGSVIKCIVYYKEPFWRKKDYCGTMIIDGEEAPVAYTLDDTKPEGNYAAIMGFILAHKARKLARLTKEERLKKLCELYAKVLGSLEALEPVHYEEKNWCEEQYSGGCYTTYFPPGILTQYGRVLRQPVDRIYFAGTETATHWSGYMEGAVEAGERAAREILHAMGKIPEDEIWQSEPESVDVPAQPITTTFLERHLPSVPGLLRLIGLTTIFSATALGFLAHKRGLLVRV
As to the kind of experiment: biochemical. Particulars: residual enzyme activity; for % of MAO-B activity (1 µM): compound at 1 µM; for % of MAO-B activity (10 µM): compound at 10 µM. On the procedure: (§1) The hMAO-A and hMAO-B enzymes were purchased from Sigma-Aldrich (St. Louis, MO, USA). […] The mixture was pre-incubated at 37 °C for 5 min and subsequently substrate kynuramine was added to the final concentration of 60 µM in the case of hMAO-A and 30 µM in the case of hMAO-B. The final volume of reaction mixture was 0.1 mL. The whole reaction mixture was incubated at 37 °C for 30 min. The reaction was stopped by the addition of 200 µL acetonitrile/methanol mixture (ratio 1:1) and cooling down to 0 °C. […] Eluents: (A) 0.1% formic acid in water; (B) 0.1% formic acid in acetonitrile.

The target in data set [2] is human butyrylcholinesterase (hBChE; EC 3.1.1.8) (Homo sapiens, UniProt P06276). As to the kind of experiment: biochemical. The settings on record: mean of at least three experiments; read-out: IC50 hBChE ± STD. On the procedure:
(§2) For that purpose, Ellman’s colorimetric assay was used[35].
(§3) The catalytic activity of both cholinesterases was determined by standard Ellman’s method adapted for 96-well plates. All tested inhibitors were freshly prepared in 50% DMSO/50% methanol at 10 mM concentration as stock solutions and then diluted in 0.1 M phosphate buffer, pH 7.4. […] The mixture was pre-incubated at 37 °C for 15 min and subsequently substrate (acetylthiocholine iodide or butyrylthiocholine iodide) was added to the final concentration of 1000 μM. The final volume of the reaction was 100 μL. The catalytic activity was evaluated as the amount of product (%) formed by enzyme after 10 min of incubation at 37 °C. The IC50 values from three independent experiments for each inhibitor concentration in triplicate were calculated using non-linear regression curve analysis in Prism version 7 Software (GraphPad Software Inc., San Diego, CA).

Data set [3] concerns the target human AChE (hAChE; EC 3.1.1.7) (Homo sapiens, UniProt P22303). As to the kind of experiment: biochemical. As to the method: as §2, §3
A further data set deals with T2, hMAO-A (Homo sapiens, UniProt P21397).
T2 construct: purchased Sigma-Aldrich (St. Louis, MO, USA)
T2 sequence (P21397 1-527): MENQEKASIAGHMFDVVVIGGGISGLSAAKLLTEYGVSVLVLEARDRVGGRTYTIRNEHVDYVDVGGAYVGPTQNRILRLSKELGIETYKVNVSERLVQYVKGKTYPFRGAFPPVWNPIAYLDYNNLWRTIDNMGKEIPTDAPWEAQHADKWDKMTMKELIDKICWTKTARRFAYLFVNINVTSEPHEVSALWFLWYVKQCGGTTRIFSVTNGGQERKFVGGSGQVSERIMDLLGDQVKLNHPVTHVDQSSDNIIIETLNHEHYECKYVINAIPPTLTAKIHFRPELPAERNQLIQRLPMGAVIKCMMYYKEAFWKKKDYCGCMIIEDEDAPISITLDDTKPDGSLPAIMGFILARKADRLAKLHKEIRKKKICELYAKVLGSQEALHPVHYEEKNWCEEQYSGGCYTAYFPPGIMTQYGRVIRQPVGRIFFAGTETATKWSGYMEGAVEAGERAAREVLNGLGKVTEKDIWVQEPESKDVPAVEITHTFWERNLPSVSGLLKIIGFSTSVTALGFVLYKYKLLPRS
As to the kind of experiment: hMAO-A inhibition, kynuramine substrate, HPLC-MS. The data set is classed as biochemical. The settings on record: residual enzyme activity; for % of MAO-A activity (1 µM): compound at 1 µM; for % of MAO-A activity (10 µM): compound at 10 µM. On the procedure: as §1

The next data set concerns SH-SY5Y cells. Also noted: method as in PMID 25792506. Particulars: 10, 50 and 100 µM, MTT; cited from earlier work.
For data set [4] the following is noted: class from PAMPA Pe. (In general: PAMPA measures passive passage across an artificial lipid membrane.)
Protocol: (§4) The PAMPA was used as the non-cell-based in vitro assay to predict BBB penetration carried out in a coated 96-well membrane filter[44]^,[52]. […] Tested compounds were dissolved first in DMSO and then diluted with PBS (pH 7.4) to achieve the final concentration of 100 µM in the donor well. […] An aliquot of 300 µL of the donor solution (VD) was added to the donor wells and the donor filter plate was carefully put on the acceptor plate so that coated membrane was "in touch" with both donor solution and acceptor buffer. […] The concentration of the tested compound in both the donor and acceptor wells was assessed after 3, 4, 5, and 6 h of incubation, respectively, in quadruplicate using a multi-plate reader Spark (Tecan GmbH, Grödig, Austria) at the maximum absorption wavelength of each compound. Also prepared were solutions at the theoretical equilibrium of the given compound (i.e. the theoretical concentration if the donor and acceptor compartment were simply combined).
Another data set in a line: in vitro. The settings on record: PAMPA, pH 7.4.
For data set [5], the system named is human neuroblastoma cell line (SH-SY5Y). As to the kind of experiment: MTT cytotoxicity on SH-SY5Y. Particulars: 24 h, read-out: IC50 ± SEM SH-SY5Y.
Protocol: (§5) Briefly, HepG2 and SH-SY5Y cells were seeded into 96-well plates in 100 µL and density of 15 × 10^3 and 20 × 10^3 cells per well, respectively. Cells were allowed to attach overnight. The stock solutions of tested compounds were prepared in DMSO (Sigma-Aldrich), further serially diluted in cultivation medium and added to the cells in 96-well culture plate. […] After 24 h was the medium aspirated and 100 µL MTT solution (0.5 mg/mL) in serum free DMEM medium was added to each well. The cells were then incubated for one hour. The medium was then aspirated and purple crystals of MTT formazan were dissolved in 100 µL DMSO under shaking. The absorbance was measured with a multimode microplate reader Spark® (Tecan Trading AG, Männedorf, Switzerland) at test wavelength of 570 nm.
(§6) The data were obtained from three independent experiments performed in triplicates. The IC50 values were expressed as a mean ± standard error of the mean (SEM).
The test system of data set [6] is human hepatocellular carcinoma cell line (HepG2). As to the kind of experiment: MTT cytotoxicity on HepG2. Particulars: HepG2, 24 h, read-out: IC50 ± SEM HepG2.
Protocol: as §5, §6

human AChE (hAChE; EC 3.1.1.7), sequence (P22303 32-614): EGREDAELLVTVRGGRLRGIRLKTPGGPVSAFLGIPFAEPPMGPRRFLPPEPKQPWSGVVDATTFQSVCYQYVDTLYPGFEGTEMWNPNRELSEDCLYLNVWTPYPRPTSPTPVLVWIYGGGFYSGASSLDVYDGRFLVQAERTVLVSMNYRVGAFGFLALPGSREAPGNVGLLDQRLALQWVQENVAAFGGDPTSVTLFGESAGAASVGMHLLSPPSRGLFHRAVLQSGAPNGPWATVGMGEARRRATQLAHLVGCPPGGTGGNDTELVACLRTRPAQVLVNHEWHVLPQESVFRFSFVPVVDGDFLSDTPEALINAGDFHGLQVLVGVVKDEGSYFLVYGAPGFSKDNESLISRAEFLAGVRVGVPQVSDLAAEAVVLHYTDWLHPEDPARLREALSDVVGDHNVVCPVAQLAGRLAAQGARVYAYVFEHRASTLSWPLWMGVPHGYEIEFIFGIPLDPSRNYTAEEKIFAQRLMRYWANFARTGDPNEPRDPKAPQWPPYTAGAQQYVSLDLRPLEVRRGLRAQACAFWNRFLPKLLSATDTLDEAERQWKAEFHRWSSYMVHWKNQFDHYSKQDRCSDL
human butyrylcholinesterase (hBChE; EC 3.1.1.8), sequence (P06276 29-602): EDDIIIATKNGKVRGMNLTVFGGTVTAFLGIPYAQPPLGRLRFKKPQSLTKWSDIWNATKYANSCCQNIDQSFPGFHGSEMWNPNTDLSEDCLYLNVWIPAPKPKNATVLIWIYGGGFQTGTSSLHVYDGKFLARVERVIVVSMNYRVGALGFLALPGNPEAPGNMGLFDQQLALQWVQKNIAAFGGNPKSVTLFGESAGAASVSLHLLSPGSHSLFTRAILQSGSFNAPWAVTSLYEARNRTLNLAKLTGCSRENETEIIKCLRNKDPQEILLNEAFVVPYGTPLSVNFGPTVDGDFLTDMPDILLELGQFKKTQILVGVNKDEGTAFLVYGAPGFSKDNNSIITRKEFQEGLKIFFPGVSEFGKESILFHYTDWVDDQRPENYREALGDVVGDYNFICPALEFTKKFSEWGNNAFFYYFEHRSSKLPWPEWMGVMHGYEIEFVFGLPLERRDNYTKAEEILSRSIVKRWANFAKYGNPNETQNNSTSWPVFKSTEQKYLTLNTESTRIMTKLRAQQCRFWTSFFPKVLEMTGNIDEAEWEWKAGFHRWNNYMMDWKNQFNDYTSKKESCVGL
Protocol for in vitro: as §4

As to `C#CCNc1c2c(nc3ccccc13)CCCC2` [Compound 9], in data set [1] (100 µM), the hepatotoxicity entry was “nearly no hepatotoxicity”. For the same compound, the cell survival rate in [1] (200 µM) is listed as 91.38%. Moreover, at hMAO-B, the “% of MAO-B activity (1 µM)” value was found to be 83% and the “% of MAO-B activity (10 µM)” value was found to be 61%. For the same compound, the IC50 – broadly, the concentration needed to halve the response being measured – in [2] came out at 0.162 ± 0.008 µM. In addition, the IC50 in [3] (mean of at least three experiments, read-out: IC50 hAChE ± STD) stood at 0.094 ± 0.0008 µM. In data set [3] (ratio IC50(hBChE)/IC50(hAChE)), the “SI (hBChE/hAChE)” value was 1.72. In addition, on hMAO-A, the “% of MAO-A activity (1 µM)” value worked out at 94% and the “% of MAO-A activity (10 µM)” value was found to be 56%. Further, in the data set with SH-SY5Y cells, the “effect on the viability of SH-SY5Y cells” value is “nearly no effect on the viability”.
In the case of `COc1ccc2nc3c(c(N)c2c1)CCCC3` [Compound 7-MEOTA, 7-methoxytacrine, reference compound], at hMAO-B, the “% of MAO-B activity (1 µM)” value was 78% and the “% of MAO-B activity (10 µM)” value was determined as 76%. In [4], the CNS predicted availability result is “CNS+ (CNS + (high BBB permeation predicted): Pe (×10^−6 cm s^−1) > 4.0)”. Also, the Papp (commonly the rate of passage across a membrane or cell layer, normalised by area and donor concentration) in the data set “in vitro” was 17 ± 3.6 ×10⁻⁶ cm/s. Also, at hMAO-A, the “% of MAO-A activity (1 µM)” value was 41% and the “% of MAO-A activity (10 µM)” value came to 42%. In addition, the IC50 in [5] worked out at 53.26 ± 0.38 µM. The IC50 in data set [6] is 44.4 ± 3.35 µM.
Take `Nc1c2c(nc3cc(Cl)ccc13)CCCC2` [6-Chlorotacrine, 6-chlorotacrine, reference compound]: on hMAO-B, the “% of MAO-B activity (1 µM)” value is 80% and the “% of MAO-B activity (10 µM)” value was found to be 84%. Also, the CNS predicted availability result in data set [4] was “CNS+ (CNS + (high BBB permeation predicted): Pe (×10^−6 cm s^−1) > 4.0)”. Moreover, in the data set “in vitro”, the Papp at 100 µM came out at 11 ± 0.5 ×10⁻⁶ cm/s. Besides, at hMAO-A, the “% of MAO-A activity (1 µM)” value is 61% and the “% of MAO-A activity (10 µM)” value amounted to 48%. In data set [5], the IC50 is 50.4 ± 1.28 µM. Besides, in data set [6], the IC50 amounted to 43.2 ± 1.17 µM.
